Assay results as given in patent publication US20060100259A1, “Process for the preparation of substituted triazole compounds” (priority 2004, published 2006).

| SMILES | melting point [°C] |
| --- | --- |
| COc1ccccc1C(=O)n1nc(Nc2ccccc2)nc1N [Compound #29, N^3-phenyl-1-(2′methoxybenzoyl)-1,2,4-triazole-3,5-diamine] | 89.5 to 94 |
| COc1ccc(C(=O)n2nc(Nc3ccc(S(N)(=O)=O)cc3)nc2N)cc1 [Compound #12, N^3-[(4-aminosulfonyl)phenyl]-1-(4′-methoxybenzoyl)-1H-1,2,4-triazole-3,5-diamine] | 244.5 to 247.5 |
| COc1ccccc1C(=O)n1nc(Nc2ccc(S(N)(=O)=O)cc2)nc1N [Compound #3, N^3-[(4-aminosulfonyl)phenyl]-1-(2′-methoxybenzoyl)-1H-1,2,4-triazole-3 5-diamine] | 217 to 221.5 |
| Nc1nc(Nc2ccc(S(N)(=O)=O)cc2)nn1C(=O)c1ccco1 [Compound #17, N^3-[(4-aminosulfonyl)phenyl]-1-(2′-furoyl)-1H-1,2,4-triazole-3,5-diamine] | > 300 |
| COc1cccc(C(=O)n2nc(Nc3ccccc3)nc2N)c1 [Compound #30, N^3-phenyl-1-(3′-methoxybenzoyl)-1,2,4-triazole-3,5-diamine] | 174 to 184 |
| Nc1nc(Nc2ccccc2)nn1C(=O)c1ccco1 [Compound #31, N^3-phenyl-1-(2-furoyl)-1,2,4-triazole-3,5-diamine] | 201 to 202 |
| Nc1nc(Nc2ccc(S(N)(=O)=O)cc2)nn1C(=O)c1ccccc1Cl [Compound #2, N^3-[(4-aminosulfonyl)phenyl]-1-(2′-chlorobenzoyl)-1H-1,2,4-triazole-3,5-diamine] | 237 to 242.5 |
| Nc1nc(Nc2ccc(S(N)(=O)=O)cc2)nn1C(=O)c1cccc([N+](=O)[O-])c1 [Compound #5, N^3-[(4-aminosulfonyl)phenyl]-1-(3′-nitrobenzoyl)-1H-1,2,4-triazole-3,5-diamine] | 260 to 262 |
| Nc1nc(Nc2ccc(S(N)(=O)=O)cc2)nn1C(=O)c1ccccc1Br [Compound #4, N^3-[(4-aminosulfonyl)phenyl]-1-(2′-bromobenzoyl)-1H-1,2,4-triazole-3,5-diamine] | 246 to 248 |
| CC(=O)n1nc(Nc2ccc(S(N)(=O)=O)cc2)nc1N [Compound #16, N^3-[(4-aminosulfonyl)phenyl]-1-acetyl-1H-1,2,4-triazole-3,5-diamine] | 334 to 336 |
| Nc1nc(Nc2ccc(S(N)(=O)=O)cc2)nn1C(=O)c1ccc([N+](=O)[O-])cc1 [Compound #9, N^3-[(4-aminosulfonyl)phenyl]-1-(4′-nitrobenzoyl)-1H-1,2,4-triazole-3,5-diamine] | 336 to 338 |
| Nc1nc(Nc2ccc(S(N)(=O)=O)cc2)nn1C(=O)c1cccc(C(F)(F)F)c1 [Compound #6, N^3-[(4-aminosulfonyl)phenyl]-1-[3′-(trifluoromethyl)benzoyl]-1H-1,2,4-triazole-3,5-diamine] | 251 to 253 |
| Nc1nc(Nc2ccc(S(N)(=O)=O)cc2)nn1C(=O)c1ccc(O)cc1 [Compound #10, N^3-[(4-aminosulfonyl)phenyl]-1-(4′-hydroxybenzoyl)-1H-1,2,4-triazole-3,5-diamine] | > 300 |
| Nc1nc(Nc2ccc(S(N)(=O)=O)cc2)nn1C(=O)c1ccc(Cl)cc1 [Compound #28, N^3-[(4-aminosulfonyl)phenyl]-1-(4′-chlorobenzoyl)-1H-1,2,4-triazole-3,5-diamine] | > 260 |
| Cc1ccc(C(=O)n2nc(Nc3ccccc3)nc2N)cc1 [Compound #25, N^3-phenyl-1-(4′-methylbenzoyl)-1,2,4-triazole-3,5-diamine] | 222.5 to 224 |
| Nc1nc(Nc2ccc(S(N)(=O)=O)cc2)nn1C(=O)c1cccc(Br)c1 [Compound #7, N^3-[(4-aminosulfonyl)phenyl]-1-(3′-bromobenzoyl)-1H-1,2,4-triazole-3,5-diamine] | 242 to 244 |
